# From PMC8694143 (Microbiology Spectrum, 2021)
# No end group written: not given here.
# Experiments:
# MRSA 33592 = assay: Transmission electron microscopy; type: cell-based, Staphylococcus aureus; conditions: 25 μg/mL, PBS, 37°C
# Protocol: Samples for TEM imaging were prepared by diluting MRSA 33592 cultures to an OD of 0.5 in PBS before the cell suspension was treated with 25 μg/mL STIP3-29. Treated and untreated cells were incubated at 37°C. Treated samples were prepared from imaging after 30 min and 4 h of treatment. An untreated control sample was prepared after a 4 h incubation period. Cells from the distinct time points or treatments were harvested by centrifugation, fixed for 4 h using 2% glutaraldehyde, postfixed for 1 h with 1% OsO4, dehydrated with a graded ethanol series, embedded in Epon, and en bloc stained with saturated uranyl acetate in 70% ethanol prior to sectioning. Imaging was performed using a Hitachi HT7700 instrument.
# [1] = tested on: MRSA ATCC 33592 on 3D EpiDerm skin tissues; assay: Three-dimensional NHEK skin model of MRSA infection; type: cell-based, Staphylococcus aureus; conditions: 25 μg/mL (4× MIC), 100 μL apical, 16 h after 4 h colonization, 37°C, 5% CO2
# Protocol: 3D EpiDerm skin tissues (MatTek EPI-200-AFAB; antifungal and antibiotic-free; 9 mm) contained within a plastic insert lined with a permeable 0.4 μm membrane were transferred to 12-well plates containing antibiotic assay medium (600 μL/well). A fresh MRSA ATCC 33592 culture in the log phase of growth was centrifuged at 10,000 rpm for 5 min to harvest bacterial cells before resuspension in sterile PBS to an […] 5 × 10^6 CFU/mL. Tissues were incubated with 100 μL of the bacterial cell suspension (5 × 10^5 CFU) for 4 h at 37°C in a humidified 5% CO2 environment. After 4 h, the bacterial cell suspension was removed and the apical surface of each tissue was washed 3 times with PBS to remove nonadherent bacterial cells. Next, the colonized skin tissues were treated with a 100 μL volume of STIP3-29 at 25 μg/mL. An equal volume of sterile PBS was used for untreated control experiments. Tissues were then incubated at 37°C in a humidified 5% CO2 environment for 16 h. […] The number of MRSA colonies on each plate was counted and an average CFU/mL was determined for treated and untreated samples. […] The statistical differences in colonization were evaluated using an unpaired two-tailed Student’s t test to compare pretreated (control colonization; CC), untreated control (PBS), and STIP3-29 treated groups.
# S. auricularis = assay: MIC determination in broth; type: cell-based, Staphylococcus auricularis; conditions: isolate from the healthy quarter of a dairy cow; MH broth
# Protocol: (§1) The MICs were measured for bioactive peptides identified from the initial screen. Cation-adjusted Mueller-Hinton (MH) broth was used as the growth medium for MIC determination experiments. Bacterial cultures were diluted to an OD of 5 × 10^−4 (∼10^5 CFU/mL) in 200 μL MH broth mixed with peptides in a 2-fold dilution series arrayed in 96-well plates. Plates were incubated without shaking at 30 or 37°C depending on the organism.
# MRSA ATCC BAA-2313 = assay: MIC determination in broth; type: cell-based, Staphylococcus aureus; conditions: STIP3 variants, highest conc. tested 100 μg/mL; cation-adjusted MH broth, ~10^5 CFU/mL, 2-fold dilution series, 37°C, 16 h
# How it was run: (§2)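 Broth microdilution in cation-adjusted Mueller-Hinton broth; cultures diluted to OD 5 × 10^−4 (∼10^5 CFU/mL) and exposed to 2-fold peptide dilution series. Plates incubated static at 37°C for staphylococci.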
# MRSA ATCC BAA-41 = assay: MIC determination in broth; type: cell-based, Staphylococcus aureus; conditions: STIP3 variants, highest conc. tested 100 μg/mL; cation-adjusted MH broth, ~10^5 CFU/mL, 2-fold dilution series, 37°C, 16 h
# How it was run: as §2
# MRSA ATCC BAA-1683 = assay: MIC determination in broth; type: cell-based, Staphylococcus aureus; conditions: STIP3 variants, highest conc. tested 100 μg/mL; cation-adjusted MH broth, ~10^5 CFU/mL, 2-fold dilution series, 37°C, 16 h
# How it was run: as §2
# MRSA ATCC BAA-42 = assay: MIC determination in broth; type: cell-based, Staphylococcus aureus; conditions: STIP3 variants, highest conc. tested 100 μg/mL; cation-adjusted MH broth, ~10^5 CFU/mL, 2-fold dilution series, 37°C, 16 h
# How it was run: as §2
# MRSA ATCC BAA-44 = assay: MIC determination in broth; type: cell-based, Staphylococcus aureus; conditions: STIP3 variants, highest conc. tested 100 μg/mL; cation-adjusted MH broth, ~10^5 CFU/mL, 2-fold dilution series, 37°C, 16 h
# How it was run: as §2
# MRSA ATCC 33592 = assay: MIC determination in broth; type: cell-based, Staphylococcus aureus
# How it was run: as §2
# S. aureus ATCC 29213 = assay: MIC determination in broth; type: cell-based, Staphylococcus aureus; conditions: STIP3 variants, highest conc. tested 100 μg/mL; cation-adjusted MH broth, ~10^5 CFU/mL, 2-fold dilution series, 37°C, 16 h
# How it was run: as §2
# MRSA ATCC BAA-2094 = assay: MIC determination in broth; type: cell-based, Staphylococcus aureus; conditions: STIP3 variants, highest conc. tested 100 μg/mL; cation-adjusted MH broth, ~10^5 CFU/mL, 2-fold dilution series, 37°C, 16 h
# How it was run: as §2
# Escherichia coli DH10B = assay: MIC determination in broth; type: cell-based; conditions: MH broth
# Protocol: as §1
# [2] = tested on: Pseudomonas aeruginosa ATCC 27853; assay: MIC determination in broth; type: cell-based; conditions: MH broth
# Protocol: as §1
# S. scuri = assay: MIC determination in broth; type: cell-based; conditions: isolate from the healthy quarter of a dairy cow; MH broth
# Protocol: as §1
# [3] = tested on: Mannheimia haemolytica ATCC 33396; assay: MIC determination in broth; type: cell-based; conditions: MH broth
# Protocol: as §1
# [4] = tested on: S. aureus bovid isolate (RDM-1); assay: MIC determination in broth; type: cell-based, Staphylococcus aureus; conditions: clinical isolate, mastitis in a dairy cow; MH broth
# Protocol: as §1
substance,measurement,setting,value
TVGGLVKWILKTVKKFA-NH2 [STIP3-29],"Peptide-induced lysis by TEM, 30 min",MRSA 33592; 30 min,No peptide-induced lysis was observed
same,"Peptide-induced lysis by TEM, 4 h",MRSA 33592; 4 h,evidence was present
same,Effect on the MRSA population on colonized NHEK tissue,[1],prevented the expansion of the MRSA population
same,"MIC, S. auricularis",S. auricularis,1.56 µg/mL
same,"MIC, S. aureus ATCC BAA 2313 (SCCmec XI)",MRSA ATCC BAA-2313,6.25 µg/mL
same,"MIC, S. aureus ATCC BAA 41 (SCCmec II)",MRSA ATCC BAA-41,6.25 µg/mL
same,"MIC, S. aureus ATCC BAA 1683 (SCCmec IV)",MRSA ATCC BAA-1683,6.25 µg/mL
same,"MIC, S. aureus ATCC BAA 42 (SCCmec VI)",MRSA ATCC BAA-42,6.25 µg/mL
same,"MIC, S. aureus ATCC BAA 44 (SCCmec I)",MRSA ATCC BAA-44,6.25 µg/mL
same,Improvement to antibiotic activity relative to STIP3-1,MRSA ATCC 33592; S. aureus ATCC 29213 and MRSA panel MICs,16 fold
same,MIC (μg/mL) for MRSA ATCC 33592,"MRSA ATCC 33592; Table 1 and text, cation-adjusted MH broth, ~10^5 CFU/mL, 37°C, 16 h",6.25 µg/mL
same,"MIC, S. aureus ATCC 33592 (SCCmec III)","MRSA ATCC 33592; Table S5, STIP3 variants, highest conc. tested 100 μg/mL, cation-adjusted MH broth, ~10^5 CFU/mL, 2-fold dilution series, 37°C, 16 h",6.25 µg/mL
same,"MIC for MRSA, molar",MRSA ATCC 33592; conversion of 6.25 μg/mL,3.3 µM
same,"MIC, S. aureus ATCC 29213",S. aureus ATCC 29213,12.5 µg/mL
same,"MIC, S. aureus ATCC BAA 2094 (SCCmec V)",MRSA ATCC BAA-2094,6.25 µg/mL
same,"MIC, Escherichia coli DH10B",Escherichia coli DH10B,12.5 µg/mL
same,"MIC, Pseudomonas aeruginosa ATCC 27853",[2],50 µg/mL
same,"MIC, S. scuri",S. scuri,3.13 µg/mL
same,"MIC, Mannheimia haemolytica ATCC 33396",[3],6.25 µg/mL
same,"MIC, S. aureus bovid isolate (RDM-1)",[4],6.25 µg/mL
